The text below walks through data of patent US20250296938A1, “Compounds that Interact with the Ras Superfamily for the Treatment of Cancers, Inflammatory Diseases, Rasopathies, and Fibrotic Disease” (SHY Therapeutics, LLC, priority 2018, published 2025).

What all share (assay): Ras GTP binding domain inhibition assay (Cy3-GTP/Cy5-GTP competition)
The target of one assay is T1, KRas G12D mutant (Homo sapiens, UniProt P01116, G12D).
T1 construct: fused on or other part: His tag, used for capture on nickel-coated plates
The note with it: at 20 μM. Put shortly: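 His-tagged Ras immobilized on nickel-coated wells in Tris buffer (pH 7.4 or 7.0) with 1 mM MgCl2, 1 mM DTT, 1% DMSO. Compound (20 μM, or serial dilution for IC50) incubated 3 hours at room temperature, ± Sos (residues 556-1049) in final hour. Bound 100 nM Cy3-/Cy5-GTP read after 45 minutes and washing.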

The target in the next assay is Rho-A (Homo sapiens, UniProt P61586). Put shortly:
(§1)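 Compounds tested at 20 μM or in serial dilution for IC50 against nickel-captured His-tagged GTPase, 3 hours at room temperature, with or without His-Sos GEF added for last hour. Fluorescent GTP then added at 100 nM for 45 minutes; wells washed, bound label measured by fluorescence.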

The next assay concerns the target Rac-1 (Homo sapiens, UniProt P63000). The essentials: as §1
The mark [1] stands for this setting: with SOS, read-out: KRas G12D mutant + SOS: % inh.
[2] abbreviates: without SOS, read-out: KRas G12D mutant: % inh.
Where [3] appears, read: with SOS, read-out: Rho-A + SOS: % inh.
The mark [4] stands for this setting: without SOS, read-out: Rho-A: % inh.
The mark [5] stands for this setting: with SOS, read-out: Rac-1 + SOS: % inh.
The mark [6] stands for this setting: without SOS, read-out: Rac-1: % inh.

Like-named read-outs stand apart in the source and are kept apart here.

Consider `COc1cccc(-c2sc3nc(-c4nccn4C)nc(N4CCC(OC)C4)c3c2-c2ccccc2)c1F.Cl` (stereo not drawn) [drawing 973], for which, at KRas G12D mutant (setting [1]), the inhibition at 20 µM was in the range of 51 to 75%. On KRas G12D mutant (without SOS), the “KRas G12D mutant: % inh.” value is “C (51-75% inhibition)”. In addition, the “Rho-A + SOS: % inh.” value on Rho-A (at 20 μM, with SOS) is on record as “C (51-75% inhibition)”. Also, at Rho-A (at 20 μM, without SOS), the “Rho-A: % inh.” value is “A (1-25% inhibition)”. The “Rac-1 + SOS: % inh.” value on Rac-1 (at 20 μM, with SOS) is listed as 0 (0% inhibition). In addition, the “Rac-1: % inh.” value at Rac-1 (at 20 μM, without SOS) is reported as “A (1-25% inhibition)”.

Take `COc1ccc(Cn2cnc(-c3nc(O)c4scc(-c5ccccn5)c4n3)c2)cc1` [drawing 974]: the inhibition at 20 µM at KRas G12D mutant (setting [1]) was 0%; on KRas G12D mutant (setting [2]), 1 to 25%; at Rho-A (setting [3]), 0%; at Rho-A (setting [4]) it was 0%; on Rac-1 (setting [5]), 1 to 25%; on Rac-1 (setting [6]), 1 to 25%.

On to `COc1nscc1-c1sc2nc(-c3nccn3C)nc(N3CCC(OC)C3)c2c1-c1ccccc1` (stereo not drawn) [drawing 975], for which the inhibition at 20 µM on KRas G12D mutant (setting [1]) lay within 51 to 75%; on KRas G12D mutant (setting [2]), 26 to 50%; on Rho-A (setting [3]) it was 1 to 25%; at Rho-A (setting [4]), 1 to 25%; on Rac-1 (setting [5]), 26 to 50%; on Rac-1 (setting [6]), 26 to 50%.

For `COCCn1cc(-c2sc3nc(-c4nccn4C)nc(N4CCC(OC)C4)c3c2-c2ccccc2)cn1` (stereo not drawn) [drawing 976], the inhibition at 20 µM on KRas G12D mutant (setting [1]) fell in the range of 51 to 75%; on KRas G12D mutant (setting [2]), 51 to 75%; on Rho-A (setting [3]), 26 to 50%; at Rho-A (setting [4]), 26 to 50%; on Rac-1 (setting [5]), 51 to 75%; at Rac-1 (setting [6]), 51 to 75%.

Regarding `COC1CCN(c2nc(-c3nccn3C)nc3sc(-c4cnc(C5CC5)o4)c(-c4ccccc4)c23)C1` (stereo not drawn) [drawing 977], the inhibition at 20 µM on KRas G12D mutant (setting [1]) lay within 51 to 75%; on KRas G12D mutant (setting [2]), 51 to 75%; at Rho-A (setting [3]) it was 51 to 75%; at Rho-A (setting [4]), 26 to 50%; on Rac-1 (setting [5]), 1 to 25%; at Rac-1 (setting [6]), 1 to 25%.

Consider `COc1ncccc1-c1sc2nc(-c3nccn3C)nc(N3CCC(OC)C3)c2c1-c1ccccc1` (stereo not drawn) [drawing 978], for which the inhibition at 20 µM at KRas G12D mutant (setting [1]) lay within 51 to 75%; on KRas G12D mutant (setting [2]) it was 51 to 75%; at Rho-A (setting [3]), 51 to 75%; on Rho-A (setting [4]), 51 to 75%; on Rac-1 (setting [5]) it was 51 to 75%; on Rac-1 (setting [6]), 26 to 50%.

For `COC1CCN(c2nc(-c3nccn3C)nc3sc(-c4cccnc4)c(-c4ccccc4)c23)C1` (stereo not drawn) [drawing 979], the inhibition at 20 µM on KRas G12D mutant (setting [1]) was in the range of 51 to 75%; on KRas G12D mutant (setting [2]), 51 to 75%; at Rho-A (setting [3]), 51 to 75%; at Rho-A (setting [4]) it was 51 to 75%; at Rac-1 (setting [5]), 51 to 75%; at Rac-1 (setting [6]), 76 to 100%.

Turning to `COc1cc(-c2sc3nc(-c4nccn4C)nc(N4CCC(OC)C4)c3c2-c2ccccc2)ccn1` (stereo not drawn) [drawing 980], the inhibition at 20 µM at KRas G12D mutant (setting [1]) is 51 to 75%; at KRas G12D mutant (setting [2]), 51 to 75%; at Rho-A (setting [3]) it was 26 to 50%; on Rho-A (setting [4]), 1 to 25%; at Rac-1 (setting [5]), 1 to 25%; on Rac-1 (setting [6]), 26 to 50%.

Turning to `Cc1cc(Cn2ccnc2-c2nc(O)c3scc(-c4ccccn4)c3n2)on1` [drawing 981], the inhibition at 20 µM at KRas G12D mutant (setting [1]) fell in the range of 26 to 50%; at KRas G12D mutant (setting [2]) it was 51 to 75%; on Rho-A (setting [3]) it was 26 to 50%; at Rho-A (setting [4]), 1 to 25%; at Rac-1 (setting [5]), 51 to 75%; on Rac-1 (setting [6]), 51 to 75%.

Turning to `Oc1nc(-c2cn(-c3ccccc3)cn2)nc2c(-c3ccccn3)csc12` [drawing 982], the inhibition at 20 µM on KRas G12D mutant (setting [1]) is 1 to 25%; at KRas G12D mutant (setting [2]) it was 1 to 25%; at Rho-A (setting [3]) it was 26 to 50%; at Rho-A (setting [4]), 0%; at Rac-1 (setting [5]) it was 1 to 25%; on Rac-1 (setting [6]) it was 26 to 50%.

Regarding `Oc1nc(-c2cn3cccnc3n2)nc2c(-c3ccccn3)csc12` [drawing 983], the inhibition at 20 µM on KRas G12D mutant (setting [1]) is 1 to 25%; at KRas G12D mutant (setting [2]) it was 1 to 25%; on Rho-A (setting [3]), 1 to 25%; at Rho-A (setting [4]) it was 26 to 50%; at Rac-1 (setting [5]) it was 0%; at Rac-1 (setting [6]), 0%.

In the case of `COC1CCN(c2nc(-c3nccn3C)nc3sc(-c4ccccc4Cl)c(-c4cscn4)c23)C1` (stereo not drawn) [drawing 984], the inhibition at 20 µM is 51 to 75% at KRas G12D mutant (setting [1]); 51 to 75% at KRas G12D mutant (setting [2]); 51 to 75% at Rho-A (setting [3]); 0% on Rho-A (setting [4]); 76 to 100% on Rac-1 (setting [5]); 51 to 75% at Rac-1 (setting [6]).

As for `COc1cccc(Cn2ccnc2-c2nc(O)c3scc(-c4ccccn4)c3n2)c1` [drawing 985], the inhibition at 20 µM lay within 51 to 75% at KRas G12D mutant (setting [1]); 76 to 100% on KRas G12D mutant (setting [2]); 51 to 75% on Rho-A (setting [3]); 26 to 50% at Rho-A (setting [4]); 76 to 100% on Rac-1 (setting [5]); 76 to 100% on Rac-1 (setting [6]).

Consider `Oc1nc(-c2nccn2Cc2ccccn2)nc2c(-c3ccccn3)csc12` [drawing 986], for which the inhibition at 20 µM at KRas G12D mutant (setting [1]) fell in the range of 51 to 75%; on KRas G12D mutant (setting [2]), 76 to 100%; on Rho-A (setting [3]), 51 to 75%; on Rho-A (setting [4]), 51 to 75%; on Rac-1 (setting [5]) it was 51 to 75%; at Rac-1 (setting [6]) it was 76 to 100%.

For the compound `COCCn1ccnc1-c1nc(O)c2scc(-c3ccccn3)c2n1` [drawing 987], the inhibition at 20 µM on KRas G12D mutant (setting [1]) was 51 to 75%; at KRas G12D mutant (setting [2]), 76 to 100%; on Rho-A (setting [3]) it was 51 to 75%; at Rho-A (setting [4]), 51 to 75%; at Rac-1 (setting [5]) it was 76 to 100%; on Rac-1 (setting [6]), 76 to 100%.

With `Cn1ccnc1-c1nc(O)c2scc(-c3ccccn3)c2n1` [drawing 988], the inhibition at 20 µM fell in the range of 51 to 75% at KRas G12D mutant (setting [1]); 76 to 100% on KRas G12D mutant (setting [2]); 76 to 100% at Rho-A (setting [3]); 51 to 75% on Rho-A (setting [4]); 76 to 100% at Rac-1 (setting [5]); 51 to 75% at Rac-1 (setting [6]).

Turning to `COCC(C)Nc1nc(-c2nccn2C)nc2sc(-c3ccccc3Cl)c(-c3cscn3)c12` (stereo not drawn) [drawing 989], the inhibition at 20 µM fell in the range of 51 to 75% on KRas G12D mutant (setting [1]); 51 to 75% on KRas G12D mutant (setting [2]); 26 to 50% on Rho-A (setting [3]); 26 to 50% on Rho-A (setting [4]); 26 to 50% at Rac-1 (setting [5]); 26 to 50% at Rac-1 (setting [6]).

For `COCC(C)Nc1nc(-c2nccn2C)nc2sc(-c3cccc(OC)c3)c(-c3cscn3)c12` (stereo not drawn) [drawing 990], the inhibition at 20 µM on KRas G12D mutant (setting [1]) lay in the range of 51 to 75%; on KRas G12D mutant (setting [2]), 51 to 75%; at Rho-A (setting [3]), 26 to 50%; on Rho-A (setting [4]) it was 26 to 50%; on Rac-1 (setting [5]), 1 to 25%; at Rac-1 (setting [6]) it was 26 to 50%.

For the compound `COC1CCN(c2nc(-c3nccn3C)nc3sc(-c4ccn(C)n4)c(-c4ccccc4)c23)CC1` [drawing 991], the inhibition at 20 µM on KRas G12D mutant (setting [1]) is 26 to 50%; on KRas G12D mutant (setting [2]), 26 to 50%; at Rho-A (setting [3]) it was 0%; at Rho-A (setting [4]), 0%; on Rac-1 (setting [5]) it was 26 to 50%; on Rac-1 (setting [6]), 26 to 50%.

Turning to `Cn1ccc(-c2sc3nc(-c4nccn4C)nc(N4CCC5(CCOC5)C4)c3c2-c2ccccc2)n1` (stereo not drawn) [drawing 992], the inhibition at 20 µM at KRas G12D mutant (setting [1]) is 1 to 25%; on KRas G12D mutant (setting [2]) it was 26 to 50%; at Rho-A (setting [3]), 76 to 100%; on Rho-A (setting [4]), 0%; at Rac-1 (setting [5]), 26 to 50%; at Rac-1 (setting [6]), 26 to 50%.
